In ChEMBL document CHEMBL1151491 (Bioorg Med Chem Lett, 1995):

Columns and labels:
[1] = molecular target: Muscarinic acetylcholine receptor M3 (Rattus norvegicus, UniProt P08483); assay: Inhibition of binding of [3H]N-methylscopolamine to muscarinic receptor (M3) in rat submaxillary gland homogenates
[2] = molecular target: T1, Muscarinic acetylcholine receptor M4 (Rattus norvegicus, UniProt P08485); assay: Inhibition of binding of [3H]N-methylscopolamine to Muscarinic acetylcholine receptor M4 in NG 108-15 cell homogenates; assay type: cell-free
T1 sequence (P08485 whole entry): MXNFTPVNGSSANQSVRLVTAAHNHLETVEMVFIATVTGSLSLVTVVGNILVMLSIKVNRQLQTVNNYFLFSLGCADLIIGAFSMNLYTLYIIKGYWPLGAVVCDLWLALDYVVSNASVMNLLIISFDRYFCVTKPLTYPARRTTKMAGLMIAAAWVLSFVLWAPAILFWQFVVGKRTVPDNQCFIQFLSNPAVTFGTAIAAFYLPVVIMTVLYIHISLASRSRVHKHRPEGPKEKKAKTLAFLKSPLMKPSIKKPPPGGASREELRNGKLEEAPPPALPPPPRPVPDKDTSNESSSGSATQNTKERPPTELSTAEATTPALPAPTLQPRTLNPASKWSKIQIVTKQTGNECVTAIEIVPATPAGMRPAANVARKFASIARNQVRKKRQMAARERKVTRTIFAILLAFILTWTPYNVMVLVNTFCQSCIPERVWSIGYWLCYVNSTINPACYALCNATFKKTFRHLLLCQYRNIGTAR

[3] = molecular target: T2, Muscarinic acetylcholine receptor M2 (Rattus norvegicus, UniProt P10980); assay: Inhibition of binding of [3H]N-methylscopolamine to muscarinic receptor (M2) in rat heart homogenates; assay type: tissue-based
T2 sequence (P10980 whole entry): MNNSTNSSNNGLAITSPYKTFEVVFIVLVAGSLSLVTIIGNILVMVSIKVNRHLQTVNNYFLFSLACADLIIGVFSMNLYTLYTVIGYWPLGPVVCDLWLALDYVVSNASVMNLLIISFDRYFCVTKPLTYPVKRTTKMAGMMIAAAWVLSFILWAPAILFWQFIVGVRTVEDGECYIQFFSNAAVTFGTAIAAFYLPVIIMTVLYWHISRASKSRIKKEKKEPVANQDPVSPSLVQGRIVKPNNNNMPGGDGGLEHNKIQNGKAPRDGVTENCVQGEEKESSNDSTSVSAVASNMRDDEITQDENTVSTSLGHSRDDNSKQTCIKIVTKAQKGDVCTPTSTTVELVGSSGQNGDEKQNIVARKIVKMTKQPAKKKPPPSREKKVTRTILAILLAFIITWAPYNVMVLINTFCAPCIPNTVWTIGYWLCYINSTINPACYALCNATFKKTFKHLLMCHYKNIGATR

[4] = molecular target: T3, Muscarinic acetylcholine receptor M1 (Rattus norvegicus, UniProt P08482); assay: Inhibition of binding of [3H]pirenzepine to muscarinic receptor (M1) in rat cortex homogenates
T3 sequence (P08482 whole entry): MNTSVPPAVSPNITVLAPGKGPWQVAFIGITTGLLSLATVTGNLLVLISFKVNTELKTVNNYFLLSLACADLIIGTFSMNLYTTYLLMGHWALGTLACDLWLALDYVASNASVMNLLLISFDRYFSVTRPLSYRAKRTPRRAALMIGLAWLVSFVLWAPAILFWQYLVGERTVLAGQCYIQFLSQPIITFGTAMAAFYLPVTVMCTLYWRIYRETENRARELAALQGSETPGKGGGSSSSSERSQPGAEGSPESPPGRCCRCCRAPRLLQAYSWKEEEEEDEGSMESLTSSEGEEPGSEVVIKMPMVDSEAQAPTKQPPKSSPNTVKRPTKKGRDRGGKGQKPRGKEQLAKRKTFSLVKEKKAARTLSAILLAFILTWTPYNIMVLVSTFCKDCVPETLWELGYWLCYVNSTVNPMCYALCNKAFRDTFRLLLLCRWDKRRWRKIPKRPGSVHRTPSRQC

Sequence of Muscarinic acetylcholine receptor M3 (P08483 whole entry): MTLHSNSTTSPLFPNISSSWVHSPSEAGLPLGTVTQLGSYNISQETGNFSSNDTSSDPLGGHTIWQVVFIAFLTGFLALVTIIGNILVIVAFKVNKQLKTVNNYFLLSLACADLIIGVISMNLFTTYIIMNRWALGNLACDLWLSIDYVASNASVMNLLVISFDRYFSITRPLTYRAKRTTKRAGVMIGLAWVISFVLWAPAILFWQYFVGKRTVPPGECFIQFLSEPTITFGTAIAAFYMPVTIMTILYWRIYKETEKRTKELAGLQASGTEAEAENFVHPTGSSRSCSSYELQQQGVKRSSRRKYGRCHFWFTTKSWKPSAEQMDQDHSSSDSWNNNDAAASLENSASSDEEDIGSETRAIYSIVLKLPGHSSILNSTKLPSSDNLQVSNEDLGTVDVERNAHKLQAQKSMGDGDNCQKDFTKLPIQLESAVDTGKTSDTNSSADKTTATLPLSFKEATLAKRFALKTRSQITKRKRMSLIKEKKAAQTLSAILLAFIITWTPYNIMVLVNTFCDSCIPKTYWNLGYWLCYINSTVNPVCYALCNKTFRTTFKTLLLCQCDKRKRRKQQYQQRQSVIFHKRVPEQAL

SMILES	Ki [1] [nM]	Ki [2] [nM]	Ki [3] [nM]	Ki [4] [nM]
CN(CCCCCCCCN(C)CCCCCCN1CCC(OC(=O)C(c2ccccc2)c2ccccc2)CC1)CCCCCCN1CCC(OC(=O)C(c2ccccc2)c2ccccc2)CC1	2140	39.8	182	75.9
CN(CCCCCCCCN(C)CCCCCCN1CCC2(CC1)OC(=O)C(c1ccccc1)(c1ccccc1)O2)CCCCCCN1CCC2(CC1)OC(=O)C(c1ccccc1)(c1ccccc1)O2 [SPIROTRAMINE]	977	537	631	13.2
